Assay results: ChEMBL document CHEMBL4340553 (Bioorg Med Chem, 2019)

Key:
[1] = tested on: NCI-H460; assay: Cytotoxicity in human NCI-H460 cells assessed as reduction in cell viability incubated for 72 hrs by MTT assay; settings: NCI-H460, 72 h
[2] = tested on: MKN-45; assay: Cytotoxicity in human MKN45 cells assessed as reduction in cell viability incubated for 72 hrs by MTT assay; settings: MKN-45, 72 h
[3] = tested on: HT-29; assay: Cytotoxicity in human HT-29 cells assessed as reduction in cell viability incubated for 72 hrs by MTT assay; settings: HT-29, 72 h
[4] = tested on: MDA-MB-231; assay: Cytotoxicity in human MDA-MB-231 cells assessed as reduction in cell viability incubated for 72 hrs by MTT assay; settings: MDA-MB-231, 72 h
[5] = molecular target: Hepatocyte growth factor receptor (Homo sapiens, UniProt P08581); assay: Inhibition of c-Met (unknown origin) using poly (Glu, Tyr) 4:1 substrate incubated for 30 mins by HTRF assay
[6] = Inhibition of VEGFR (unknown origin) using poly (Glu, Tyr) 4:1 substrate incubated for 30 mins by HTRF assay; set-up: species or system Homo sapiens
[7] = molecular target: Mast/stem cell growth factor receptor Kit (Homo sapiens, UniProt P10721); assay: Inhibition of c-Kit (unknown origin) using poly (Glu, Tyr) 4:1 substrate incubated for 30 mins by HTRF assay
[8] = molecular target: T1, Receptor-type tyrosine-protein kinase FLT3 (Homo sapiens, UniProt P36888); assay: Inhibition of FLT3 (unknown origin) using poly (Glu, Tyr) 4:1 substrate incubated for 30 mins by HTRF assay
T1 sequence (P36888 whole entry): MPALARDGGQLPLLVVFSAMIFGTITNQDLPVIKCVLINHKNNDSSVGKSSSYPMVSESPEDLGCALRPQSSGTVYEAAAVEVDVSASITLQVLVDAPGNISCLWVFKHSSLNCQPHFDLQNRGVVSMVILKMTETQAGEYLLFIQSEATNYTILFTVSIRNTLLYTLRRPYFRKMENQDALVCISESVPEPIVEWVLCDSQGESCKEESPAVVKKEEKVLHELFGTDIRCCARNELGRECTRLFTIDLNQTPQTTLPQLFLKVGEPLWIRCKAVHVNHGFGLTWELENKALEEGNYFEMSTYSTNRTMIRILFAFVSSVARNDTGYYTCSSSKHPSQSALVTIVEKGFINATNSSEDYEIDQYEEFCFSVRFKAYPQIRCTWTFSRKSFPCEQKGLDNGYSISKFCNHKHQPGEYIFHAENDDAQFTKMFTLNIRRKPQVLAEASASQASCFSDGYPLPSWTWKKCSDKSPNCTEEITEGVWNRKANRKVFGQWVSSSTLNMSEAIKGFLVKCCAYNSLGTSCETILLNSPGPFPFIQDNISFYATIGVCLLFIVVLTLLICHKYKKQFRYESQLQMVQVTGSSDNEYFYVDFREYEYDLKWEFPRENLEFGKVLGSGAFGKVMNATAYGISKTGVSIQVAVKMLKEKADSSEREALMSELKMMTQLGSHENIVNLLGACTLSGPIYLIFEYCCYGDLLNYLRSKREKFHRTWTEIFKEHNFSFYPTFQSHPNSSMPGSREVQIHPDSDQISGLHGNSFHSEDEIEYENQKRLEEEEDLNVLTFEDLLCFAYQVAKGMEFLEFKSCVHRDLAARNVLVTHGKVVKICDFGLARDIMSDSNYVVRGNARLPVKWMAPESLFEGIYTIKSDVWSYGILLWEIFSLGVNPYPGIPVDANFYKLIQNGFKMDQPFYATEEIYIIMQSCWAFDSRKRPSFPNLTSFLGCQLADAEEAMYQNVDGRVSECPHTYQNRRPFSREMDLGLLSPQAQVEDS

[9] = molecular target: Macrophage-stimulating protein receptor (Homo sapiens, UniProt Q04912); assay: Inhibition of RON (unknown origin) using poly (Glu, Tyr) 4:1 substrate incubated for 30 mins by HTRF assay
[10] = molecular target: Epidermal growth factor receptor (Homo sapiens, UniProt P00533); assay: Inhibition of EGFR (unknown origin) using poly (Glu, Tyr) 4:1 substrate incubated for 30 mins by HTRF assay
[11] = molecular target: Platelet-derived growth factor receptor alpha (Homo sapiens, UniProt P16234); assay: Inhibition of PDGFRalpha (unknown origin) using poly (Glu, Tyr) 4:1 substrate incubated for 30 mins by HTRF assay
[12] = molecular target: Platelet-derived growth factor receptor beta (Homo sapiens, UniProt P09619); assay: Inhibition of PDGFRbeta (unknown origin) using poly (Glu, Tyr) 4:1 substrate incubated for 30 mins by HTRF assay
[13] = molecular target: Vascular endothelial growth factor receptor 2 (Homo sapiens, UniProt P35968); assay: Inhibition of KDR (unknown origin) using poly (Glu, Tyr) 4:1 substrate incubated for 30 mins by HTRF assay
[14] = molecular target: Vascular endothelial growth factor receptor 1 (Homo sapiens, UniProt P17948); assay: Inhibition of FLT1 (unknown origin) using poly (Glu, Tyr) 4:1 substrate incubated for 30 mins by HTRF assay
[15] = molecular target: ALK tyrosine kinase receptor (Homo sapiens, UniProt Q9UM73); assay: Inhibition of ALK (unknown origin) using poly (Glu, Tyr) 4:1 substrate incubated for 30 mins by HTRF assay

Chain of Vascular endothelial growth factor receptor 2 (P35968 whole entry): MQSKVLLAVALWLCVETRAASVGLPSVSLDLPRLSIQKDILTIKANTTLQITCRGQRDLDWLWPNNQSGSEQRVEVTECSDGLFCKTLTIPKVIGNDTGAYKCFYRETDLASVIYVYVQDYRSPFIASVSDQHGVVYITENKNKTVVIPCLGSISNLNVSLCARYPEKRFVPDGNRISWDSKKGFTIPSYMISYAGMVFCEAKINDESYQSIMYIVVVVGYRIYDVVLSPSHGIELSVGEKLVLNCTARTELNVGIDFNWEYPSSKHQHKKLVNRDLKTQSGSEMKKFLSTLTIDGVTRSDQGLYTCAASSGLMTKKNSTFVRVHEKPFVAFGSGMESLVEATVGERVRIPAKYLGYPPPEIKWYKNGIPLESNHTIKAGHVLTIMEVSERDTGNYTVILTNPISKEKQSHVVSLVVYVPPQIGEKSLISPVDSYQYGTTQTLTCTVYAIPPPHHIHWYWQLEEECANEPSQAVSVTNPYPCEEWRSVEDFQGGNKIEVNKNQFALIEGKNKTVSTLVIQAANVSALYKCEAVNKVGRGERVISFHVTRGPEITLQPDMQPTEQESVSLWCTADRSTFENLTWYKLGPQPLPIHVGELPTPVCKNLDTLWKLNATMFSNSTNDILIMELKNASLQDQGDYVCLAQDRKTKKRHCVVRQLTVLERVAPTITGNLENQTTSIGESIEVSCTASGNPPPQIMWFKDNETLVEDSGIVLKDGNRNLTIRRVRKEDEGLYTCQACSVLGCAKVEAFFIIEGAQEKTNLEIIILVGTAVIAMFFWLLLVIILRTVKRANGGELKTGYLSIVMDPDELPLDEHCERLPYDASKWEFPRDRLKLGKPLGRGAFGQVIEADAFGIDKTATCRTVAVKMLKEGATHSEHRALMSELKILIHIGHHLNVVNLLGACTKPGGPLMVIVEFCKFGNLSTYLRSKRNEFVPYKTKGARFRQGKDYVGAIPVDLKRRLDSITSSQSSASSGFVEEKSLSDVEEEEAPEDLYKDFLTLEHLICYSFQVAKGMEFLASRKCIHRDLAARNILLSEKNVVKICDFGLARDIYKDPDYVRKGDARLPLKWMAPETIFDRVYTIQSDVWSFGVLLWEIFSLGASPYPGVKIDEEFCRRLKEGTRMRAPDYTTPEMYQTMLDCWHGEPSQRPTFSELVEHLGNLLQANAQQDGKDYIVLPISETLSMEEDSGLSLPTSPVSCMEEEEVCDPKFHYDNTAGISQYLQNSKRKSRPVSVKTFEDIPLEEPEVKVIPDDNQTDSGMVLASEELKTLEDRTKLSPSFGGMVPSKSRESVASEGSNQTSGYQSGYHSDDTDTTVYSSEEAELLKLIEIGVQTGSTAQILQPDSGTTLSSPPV
Chain of Mast/stem cell growth factor receptor Kit (P10721 whole entry): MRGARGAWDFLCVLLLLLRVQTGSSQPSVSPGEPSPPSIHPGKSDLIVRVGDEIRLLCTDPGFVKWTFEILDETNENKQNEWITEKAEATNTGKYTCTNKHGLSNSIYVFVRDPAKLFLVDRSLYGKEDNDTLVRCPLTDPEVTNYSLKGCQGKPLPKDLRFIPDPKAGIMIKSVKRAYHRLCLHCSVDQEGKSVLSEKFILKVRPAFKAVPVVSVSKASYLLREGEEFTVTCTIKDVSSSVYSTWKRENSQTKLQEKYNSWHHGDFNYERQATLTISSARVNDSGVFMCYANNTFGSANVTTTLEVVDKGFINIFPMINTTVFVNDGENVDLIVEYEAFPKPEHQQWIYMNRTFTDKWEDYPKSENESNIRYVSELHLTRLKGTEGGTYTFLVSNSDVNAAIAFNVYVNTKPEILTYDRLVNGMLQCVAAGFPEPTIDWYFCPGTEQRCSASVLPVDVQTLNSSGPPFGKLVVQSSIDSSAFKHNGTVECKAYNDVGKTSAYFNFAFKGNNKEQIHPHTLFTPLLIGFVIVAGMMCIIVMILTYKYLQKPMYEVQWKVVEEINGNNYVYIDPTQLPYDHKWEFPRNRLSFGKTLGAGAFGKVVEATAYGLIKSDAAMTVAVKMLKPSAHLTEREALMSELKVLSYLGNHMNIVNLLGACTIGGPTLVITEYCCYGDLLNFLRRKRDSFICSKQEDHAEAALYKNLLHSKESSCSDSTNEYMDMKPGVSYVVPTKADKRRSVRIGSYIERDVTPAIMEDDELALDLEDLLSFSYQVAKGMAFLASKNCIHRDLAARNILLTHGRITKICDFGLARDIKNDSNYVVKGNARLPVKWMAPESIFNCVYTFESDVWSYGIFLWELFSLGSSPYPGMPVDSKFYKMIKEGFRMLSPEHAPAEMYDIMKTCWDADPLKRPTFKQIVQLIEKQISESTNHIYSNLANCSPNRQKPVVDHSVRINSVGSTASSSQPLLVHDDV
Chain of Macrophage-stimulating protein receptor (Q04912 25-304 limits assumed): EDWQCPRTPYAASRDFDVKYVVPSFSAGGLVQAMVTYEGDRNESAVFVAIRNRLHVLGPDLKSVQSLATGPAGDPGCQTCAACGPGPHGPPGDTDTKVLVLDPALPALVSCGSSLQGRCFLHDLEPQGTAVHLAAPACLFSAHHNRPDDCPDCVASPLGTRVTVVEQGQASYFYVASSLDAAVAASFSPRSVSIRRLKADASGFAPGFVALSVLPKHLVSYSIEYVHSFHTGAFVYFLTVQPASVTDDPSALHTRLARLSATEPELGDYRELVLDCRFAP
Chain of Macrophage-stimulating protein receptor (Q04912 310-1400 limits assumed): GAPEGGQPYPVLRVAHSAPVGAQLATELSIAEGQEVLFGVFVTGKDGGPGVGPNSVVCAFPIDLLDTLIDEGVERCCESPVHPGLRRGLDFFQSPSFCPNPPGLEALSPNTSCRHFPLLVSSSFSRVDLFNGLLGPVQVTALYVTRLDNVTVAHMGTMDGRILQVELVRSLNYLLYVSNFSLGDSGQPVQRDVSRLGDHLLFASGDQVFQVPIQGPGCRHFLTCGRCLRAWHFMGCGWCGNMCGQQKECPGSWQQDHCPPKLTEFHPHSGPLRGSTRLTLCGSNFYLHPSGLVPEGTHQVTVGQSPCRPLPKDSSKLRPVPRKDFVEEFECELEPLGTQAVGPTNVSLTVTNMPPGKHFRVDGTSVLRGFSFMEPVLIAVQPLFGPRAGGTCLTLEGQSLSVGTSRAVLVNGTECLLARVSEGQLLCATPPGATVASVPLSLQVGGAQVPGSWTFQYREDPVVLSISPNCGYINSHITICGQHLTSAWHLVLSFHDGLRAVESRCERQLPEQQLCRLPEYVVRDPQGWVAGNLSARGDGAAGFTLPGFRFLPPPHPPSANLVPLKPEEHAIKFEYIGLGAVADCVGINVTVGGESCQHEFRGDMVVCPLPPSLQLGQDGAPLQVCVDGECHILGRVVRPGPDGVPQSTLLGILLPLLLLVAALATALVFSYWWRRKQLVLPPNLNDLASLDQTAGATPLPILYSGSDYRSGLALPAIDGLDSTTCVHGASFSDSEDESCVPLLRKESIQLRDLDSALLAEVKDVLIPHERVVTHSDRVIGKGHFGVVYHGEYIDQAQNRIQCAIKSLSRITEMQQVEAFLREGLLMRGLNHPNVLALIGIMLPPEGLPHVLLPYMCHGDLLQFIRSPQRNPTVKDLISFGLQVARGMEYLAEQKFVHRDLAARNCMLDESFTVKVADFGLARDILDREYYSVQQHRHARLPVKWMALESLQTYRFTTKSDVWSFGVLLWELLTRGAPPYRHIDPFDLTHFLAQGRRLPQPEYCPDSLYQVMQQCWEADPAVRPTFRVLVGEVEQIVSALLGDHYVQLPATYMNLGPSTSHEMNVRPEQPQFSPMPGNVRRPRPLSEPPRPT
Chain of Hepatocyte growth factor receptor (P08581 whole entry): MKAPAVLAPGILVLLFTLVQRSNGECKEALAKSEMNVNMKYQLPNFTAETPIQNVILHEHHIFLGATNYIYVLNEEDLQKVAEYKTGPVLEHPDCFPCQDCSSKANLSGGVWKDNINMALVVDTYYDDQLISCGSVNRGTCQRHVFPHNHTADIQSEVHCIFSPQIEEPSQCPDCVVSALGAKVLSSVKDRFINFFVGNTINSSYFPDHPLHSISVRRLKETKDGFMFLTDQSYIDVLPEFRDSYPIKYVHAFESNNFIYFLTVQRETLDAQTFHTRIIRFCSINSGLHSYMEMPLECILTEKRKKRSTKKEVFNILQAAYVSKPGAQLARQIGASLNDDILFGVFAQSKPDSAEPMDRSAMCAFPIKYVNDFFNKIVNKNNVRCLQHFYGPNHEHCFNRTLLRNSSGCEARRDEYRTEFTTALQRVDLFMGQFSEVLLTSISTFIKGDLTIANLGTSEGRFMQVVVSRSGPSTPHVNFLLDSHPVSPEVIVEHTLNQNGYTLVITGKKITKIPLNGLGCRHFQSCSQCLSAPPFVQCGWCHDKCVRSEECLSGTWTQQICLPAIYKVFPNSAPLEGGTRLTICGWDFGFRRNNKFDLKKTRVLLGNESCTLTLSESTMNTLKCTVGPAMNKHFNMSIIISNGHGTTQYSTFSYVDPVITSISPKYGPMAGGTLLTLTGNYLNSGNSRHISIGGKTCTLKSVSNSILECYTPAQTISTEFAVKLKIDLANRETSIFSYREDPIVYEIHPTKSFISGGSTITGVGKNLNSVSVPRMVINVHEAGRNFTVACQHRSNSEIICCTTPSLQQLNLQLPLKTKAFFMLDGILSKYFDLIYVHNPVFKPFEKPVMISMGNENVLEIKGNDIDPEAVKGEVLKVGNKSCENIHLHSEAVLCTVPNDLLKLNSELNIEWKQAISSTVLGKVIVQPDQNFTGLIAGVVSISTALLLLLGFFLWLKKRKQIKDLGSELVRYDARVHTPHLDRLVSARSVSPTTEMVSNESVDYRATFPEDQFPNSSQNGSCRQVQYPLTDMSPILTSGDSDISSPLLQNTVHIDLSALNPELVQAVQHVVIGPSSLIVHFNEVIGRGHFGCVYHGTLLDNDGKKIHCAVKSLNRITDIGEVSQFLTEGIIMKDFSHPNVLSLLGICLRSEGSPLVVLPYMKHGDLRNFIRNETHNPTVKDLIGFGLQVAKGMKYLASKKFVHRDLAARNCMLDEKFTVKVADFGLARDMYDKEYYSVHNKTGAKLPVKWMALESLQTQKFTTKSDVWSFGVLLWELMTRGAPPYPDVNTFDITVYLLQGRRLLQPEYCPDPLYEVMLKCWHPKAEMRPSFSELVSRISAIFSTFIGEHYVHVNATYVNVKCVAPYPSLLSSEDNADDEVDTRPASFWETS

Q: For `COc1cc2c(Oc3ccc(NC(=O)NS(=O)(=O)Cc4ccc(C)cc4)cc3F)ccnc2cc1OCCCN1CCCCC1`, which IC50 [1] is on record?
A: 0.92 µM

Q: And the IC50 [2]?
A: 1.13 µM

Q: And the IC50 [3]?
A: 2.17 µM

Q: And the IC50 [4]?
A: 2.54 µM

Q: For `COc1cc2nccc(Oc3ccc(NC(=O)NS(=O)(=O)Cc4ccccc4)cc3F)c2cc1OC`, which IC50 [1] is on record?
A: 1.54 µM

Q: What about the IC50 [2] of the same compound?
A: 1.43 µM

Q: And the IC50 [3]?
A: 3.02 µM

Q: What about the IC50 [4] of the same compound?
A: 2.45 µM

Q: Which results are given for `COc1cc2nccc(Oc3ccc(NC(=O)NS(=O)(=O)Cc4ccc(Cl)cc4)cc3F)c2cc1OC`?
A: IC50 [1]: 1.45 µM; IC50 [2]: 1.42 µM; IC50 [3]: 2.88 µM; IC50 [4]: 3.16 µM

Q: Which IC50 [1] does the source give for `CCCCOc1cc2nccc(Oc3ccc(NC(=O)NS(=O)(=O)Cc4ccc(F)cc4)cc3F)c2cc1OC` here?
A: 1.44 µM

Q: And the IC50 [2]?
A: 1.31 µM

Q: And the IC50 [3]?
A: 2.88 µM

Q: And the IC50 [4]?
A: 2.29 µM

Q: With `COc1cc2nccc(Oc3ccc(NC(=O)NS(=O)(=O)Cc4ccccc4C)cc3F)c2cc1OC` as the compound, how does the IC50 [1] read?
A: 3.02 µM

Q: And the IC50 [2]?
A: 3.42 µM

Q: What about the IC50 [3] of the same compound?
A: 6.21 µM

Q: And the IC50 [4]?
A: 5.67 µM

Q: Which results are given for `COc1cc2nccc(Oc3ccc(NC(=O)NS(=O)(=O)Cc4ccc(C(F)(F)F)cc4)cc3F)c2cc1OC`?
A: IC50 [1]: 12.2 µM; IC50 [2]: 10.3 µM; IC50 [3]: 8.15 µM; IC50 [4]: 9.46 µM

Q: Which results are given for `COc1cc2nccc(Oc3ccc(NC(=O)NS(=O)(=O)Cc4ccc(C)cc4)cc3F)c2cc1OC`?
A: IC50 [1]: 4.77 µM; IC50 [2]: 5.38 µM; IC50 [3]: 7.15 µM; IC50 [4]: 7.62 µM

Q: With `COc1cc2c(Oc3ccc(NC(=O)NS(=O)(=O)Cc4ccc(C)cc4)cc3F)ccnc2cc1OCCCN1CCOCC1` as the compound, how does the IC50 [1] read?
A: 1.54 µM

Q: What about the IC50 [2] of the same compound?
A: 1.67 µM

Q: And the IC50 [3]?
A: 3.76 µM

Q: And the IC50 [4]?
A: 3.86 µM

Q: Which results are given for `COc1cc2c(Oc3ccc(NC(=O)NS(=O)(=O)Cc4ccccc4)cc3F)ccnc2cc1OCCCN1CCCC1`?
A: IC50 [1]: 0.43 µM; IC50 [2]: 0.61 µM; IC50 [3]: 0.93 µM; IC50 [4]: 1.21 µM

Q: Which results are given for `COc1cc2nccc(Oc3ccc(NC(=O)NS(=O)(=O)Cc4cccc(C)c4)cc3F)c2cc1OC`?
A: IC50 [1]: 3.87 µM; IC50 [2]: 4.54 µM; IC50 [3]: 6.03 µM; IC50 [4]: 6.56 µM

Q: What does the source list for `CCCCOc1cc2nccc(Oc3ccc(NC(=O)NS(=O)(=O)Cc4ccccc4)cc3F)c2cc1OC`?
A: IC50 [1]: 1.84 µM; IC50 [2]: 1.72 µM; IC50 [3]: 3.12 µM; IC50 [4]: 2.4 µM

Q: Which IC50 [5] does the source give for `COc1cc2c(Oc3ccc(NC(=O)NS(=O)(=O)Cc4ccc(F)cc4)cc3F)ccnc2cc1OCCCN1CCCC1` here?
A: 0.00198 µM

Q: And the IC50 [1]?
A: 0.055 µM

Q: And the IC50 [2]?
A: 0.064 µM

Q: What about the IC50 [3] of the same compound?
A: 0.16 µM

Q: And the IC50 [4]?
A: 0.49 µM

Q: What about the IC50 [6] of the same compound?
A: 0.689 µM

Q: And the IC50 [7]?
A: 0.38 µM

Q: And the IC50 [8]?
A: 0.4 µM

Q: And the IC50 [9]?
A: 0.375 µM

Q: What about the IC50 [10] of the same compound?
A: > 10 µM

Q: What about the IC50 [11] of the same compound?
A: 0.242 µM

Q: What about the IC50 [12] of the same compound?
A: 0.356 µM

Q: And the IC50 [13]?
A: 0.095 µM

Q: And the IC50 [14]?
A: 0.418 µM

Q: And the IC50 [15]?
A: > 10 µM

Q: With `CCCCOc1cc2nccc(Oc3ccc(NC(=O)NS(=O)(=O)Cc4ccc(C)cc4)cc3F)c2cc1OC` as the compound, how does the IC50 [1] read?
A: 5.87 µM

Q: What about the IC50 [2] of the same compound?
A: 6.48 µM

Q: And the IC50 [3]?
A: 9.32 µM

Q: And the IC50 [4]?
A: 8.98 µM

Q: Which IC50 [1] does the source give for `COc1cc2nccc(Oc3ccc(NC(=O)NS(=O)(=O)Cc4cccc(F)c4)cc3F)c2cc1OC` here?
A: 1.79 µM

Q: And the IC50 [2]?
A: 1.63 µM

Q: What about the IC50 [3] of the same compound?
A: 3.06 µM

Q: What about the IC50 [4] of the same compound?
A: 3.53 µM

Q: Which results are given for `COc1cc2c(Oc3ccc(NC(=O)NS(=O)(=O)Cc4ccc(F)cc4)cc3F)ccnc2cc1OCCCN1CCOCC1`?
A: IC50 [1]: 0.16 µM; IC50 [2]: 0.12 µM; IC50 [3]: 0.34 µM; IC50 [4]: 0.78 µM

Q: For `COc1cc2nccc(Oc3ccc(NC(=O)NS(=O)(=O)Cc4ccc(Cl)cc4Cl)cc3F)c2cc1OC`, which IC50 [1] is on record?
A: 3.54 µM

Q: And the IC50 [2]?
A: 2.24 µM

Q: What about the IC50 [3] of the same compound?
A: 2.97 µM

Q: What about the IC50 [4] of the same compound?
A: 4.56 µM

Q: Which IC50 [1] does the source give for `COc1cc2nccc(Oc3ccc(NC(=O)NS(=O)(=O)Cc4ccc(Br)cc4)cc3F)c2cc1OC` here?
A: 1.65 µM

Q: What about the IC50 [2] of the same compound?
A: 1.42 µM

Q: What about the IC50 [3] of the same compound?
A: 3.12 µM

Q: What about the IC50 [4] of the same compound?
A: 2.26 µM

Q: Which results are given for `COc1cc2nccc(Oc3ccc(NC(=O)NS(=O)(=O)Cc4ccccc4)cc3)c2cc1OC`?
A: IC50 [1]: 2.6 µM; IC50 [2]: 2.08 µM; IC50 [3]: 4.35 µM; IC50 [4]: 3.84 µM

Q: Which IC50 [1] does the source give for `COc1cc2nccc(Oc3ccc(NC(=O)NS(=O)(=O)Cc4ccc(F)cc4)cc3)c2cc1OC` here?
A: 1.98 µM

Q: And the IC50 [2]?
A: 1.32 µM

Q: And the IC50 [3]?
A: 3.25 µM

Q: And the IC50 [4]?
A: 2.64 µM

Q: With `COc1cc2c(Oc3ccc(NC(=O)NS(=O)(=O)Cc4ccccc4)cc3F)ccnc2cc1OCCCN1CCOCC1` as the compound, how does the IC50 [1] read?
A: 0.6 µM

Q: What about the IC50 [2] of the same compound?
A: 0.33 µM

Q: What about the IC50 [3] of the same compound?
A: 1.28 µM

Q: What about the IC50 [4] of the same compound?
A: 1.08 µM

Q: With `COc1cc2c(Oc3ccc(NC(=O)NS(=O)(=O)Cc4ccc(F)cc4)cc3F)ccnc2cc1OCCCN1CCCCC1` as the compound, how does the IC50 [1] read?
A: 0.15 µM

Q: What about the IC50 [2] of the same compound?
A: 0.23 µM

Q: And the IC50 [3]?
A: 0.32 µM

Q: And the IC50 [4]?
A: 0.6 µM

Q: With `COc1cc2c(Oc3ccc(NC(=O)NS(=O)(=O)Cc4ccccc4)cc3F)ccnc2cc1OCCCN1CCCCC1` as the compound, how does the IC50 [1] read?
A: 0.74 µM

Q: What about the IC50 [2] of the same compound?
A: 0.65 µM

Q: What about the IC50 [3] of the same compound?
A: 1.23 µM

Q: What about the IC50 [4] of the same compound?
A: 1.94 µM

Q: What does the source list for `COc1cc2nccc(Oc3ccc(NC(=O)NS(=O)(=O)Cc4ccccc4F)cc3F)c2cc1OC`?
A: IC50 [1]: 1.88 µM; IC50 [2]: 2.02 µM; IC50 [3]: 3.12 µM; IC50 [4]: 2.95 µM

Q: Which IC50 [1] does the source give for `COc1cc2nccc(Oc3ccc(NC(=O)NS(=O)(=O)Cc4ccc(F)cc4)cc3F)c2cc1OC` here?
A: 1.04 µM

Q: And the IC50 [2]?
A: 0.96 µM

Q: And the IC50 [3]?
A: 2.68 µM

Q: And the IC50 [4]?
A: 2.04 µM

Q: For `COc1cc2c(Oc3ccc(NC(=O)C4(C(=O)Nc5ccc(F)cc5)CC4)cc3F)ccnc2cc1OCCCN1CCOCC1` [FORETINIB], which IC50 [6] is on record?
A: 0.00496 µM
